The test system of test [1] is MV4-11. Description: Cell growth inhibitory test MV4-11 (WST-1). Format: cell-based, human. As to conditions: MV4-11 cells, 3 days culture. As for the experimental part: Pharmacological Test Example 2
Cell Growth Inhibitory Test
MV4-11 (ATCC number: CRL-9591) as human leukemia cells was seeded in an amount of 3×10^3 using a DMEM medium containing 10% fetal calf serum (purchased from GIBCO) in a 96-well flat bottom plate.
(§1) A solution of a test compound in dimethyl sulfoxide was added to each well and was cultured in a 5% carbon dioxide incubator for 3 days. Three days after the initiation of the culture, 10 μl of a WST-1 solution in Cell Counting Kit (purchased from Wako Pure Chemical Industries, Ltd.) was added to each well for a color reaction. After proper color development, the absorbance was measured with a microplate reader under conditions of measurement wavelength 450 nm and reference wavelength 650 nm. The growth ratio for each well was determined by presuming the absorbance without the addition of the medicament to be 100% growth ratio and the absorbance of the well without seeding of the cells to be 0% growth ratio. The concentration of the test compound was varied on several levels, the cell growth ratio for each case was determined, and the concentration of the test compound necessary for inhibiting 50% of cell growth ratio (IC50) was calculated.

Test [2] deals with MOLM13. Description: Cell growth inhibitory activity using MTT method (MOLM13). Type of test: cell-based, human. As to conditions: MOLM13 cells. The procedure: Pharmacological Test Example 3
Measurement of Cell Growth Inhibitory Activity Using MTT Method
Human leukemia cell line MOLM13 (subdivided from Hayashibara Biochemical Laboratories, Inc.) was cultured in an RPMI medium containing 10% fetal calf serum (purchased from Asahi Techno Glass Corporation) within a 5% carbon dioxide incubator until the cell density reached 50 to 90% of the maximum cell density. These cells were seeded into wells, containing an RPMI medium containing 10% fetal calf serum, in a 96-well flat bottom plate in an amount of […] per well. The amount of the solution of the medium in each well was brought to 100 μl, and a test compound was added thereto to 500 ng, 100 ng, 20 ng, and 4 ng per ml. After culture within an incubator for 72 hr, 10 μl of a 5 mg/ml MTT (3-(4,5-dimethylthiazol-2-yl)-2,5-diphenyl tetrazolium bromide) solution (purchased from SIGMA) was added to the medium, and a reaction was allowed to proceed for 4 hr. Thereafter, 100 μl of a 0.04 N hydrochloric acid-isopropanol solution was added to completely dissolve the resultant MTT formazan crystal. After the dissolution, absorbance at 550 nm was measured using 620 nm as a reference wavelength with a microplate reader (DIGISCAN) (It is regarded that, in the MTT method, the viable cell count is reflected, and linearity is observed in a cell count per well range of 5×10^5 to 2×10^2 cells). After 72 hr, the absorbance of only the medium free from cells was subtracted from the absorbance of the well without the addition of the test compound to determine a value which was presumed to be 100%. On the other hand, the absorbance with the addition of the compound was expressed in terms of % growth.
(In general: Formazan colour is commonly taken as a measure of viable cells.)

Test [3] deals with MOLM13. Description: Cell growth inhibitory activities on cultured human leukemia cells MOLM-13 (WST-1). Format: cell-based. As to conditions: 3 days culture. As for the experimental part: Pharmacological Test Example 4
Cell Growth Inhibitory Activities on Cultured Human Leukemia Cells
as §1, with “Human leukemia cells MOLM13 (subdivided from Hayashibara Biochemical Laboratories, Inc.) were seeded in an amount of 3×10^3 using a DMEM medium containing 10% fetal calf serum (purchased from GIBCO) in a 96-well flat bottom plate. A solution” for “A solution”

The test system of test [4] is MOLM13. Briefly: Tumor growth inhibitory activities in nude mice xenograft model inoculated with human leukemia cells MOLM13. Type of test: in vivo. As to conditions: Mus musculus, MOLM-13, po, 50 mg/kg orally once a day, read-out: TGIR (%) (measurement date). As for the experimental part:
Pharmacological Test Example 5
Tumor Growth Inhibitory Activities in Nude Mice Xenograft Model Inoculated with Human Leukemia Cells
Human leukemia cells MOLM13 (subdivided from Hayashibara Biochemical Laboratories, Inc.) were subcutaneously transplanted into nude mice. […] The test compound suspended or dissolved in 0.5% methylcellulose was orally administered at a dose of 0.1 ml per 10 g body weight once a day for 9 days. For the control group, only vehicle was administered.
The tumor growth inhibition rate (TGIR) was calculated as follows:
The tumor growth inhibition rate (TGIR)=(1−TX/CX)×100
wherein CX represents the volume of tumor at day X for the control group when the tumor volume at the day of the start of the administration (day 1) was presumed to be 1; and TX represents the volume of tumor at day X for test compound administration groups.
(In general: Xenograft models place foreign cells or tissue in a host animal.)

Counter-ions that a name gives are not always drawn. Like-named read-outs stand apart in the source and are kept apart here.

As to `COc1cc2nccc(Oc3ccc(NC(=O)NC4CCCC(C)(C)C4)cc3Cl)c2cc1OC` (centres unmarked) [Compound 12, 1-[3-Chloro-4-(6,7-dimethoxy-quinolin-4-yloxy)-phenyl]-3-(3,3-dimethyl-cyclohexyl)-urea], the half-inhibitory concentration (IC50) (usually the point on the concentration scale where inhibition reaches its midpoint) came to 5 nM in test [1] (Homo sapiens, MV4-11, 72 h); 5.37 nM in test [2] (Homo sapiens, MOLM-13, 72 h); 6 nM in test [3] (Homo sapiens, MOLM-13, 72 h). Moreover, the inhibition in vivo at 50 mg/kg in test [4] (240 h, day 10) was determined as 93.7%.
On to `COc1cc2nccc(Oc3ccc(NC(=O)NC4CC(C)CC(C)(C)C4)cc3Cl)c2cc1OC` (centres unmarked) [Compound 13, 1-[3-Chloro-4-(6,7-dimethoxy-quinolin-4-yloxy)-phenyl]-3-(3,3,5-trimethyl-cyclohexyl)-urea], for which the IC50 worked out at 18 nM in test [1] (Homo sapiens, MV4-11, 72 h); 3.87 nM in test [2] (Homo sapiens, MOLM-13, 72 h); 21 nM in test [3] (Homo sapiens, MOLM-13, 72 h). The inhibition in vivo at 50 mg/kg in test [4] (240 h, day 10) worked out at 84.8%.
For `COc1cc2nccc(Oc3ccc(NC(=O)NC4CCCC(C)(C)C4)cc3F)c2cc1OC` (centres unmarked) [Compound 14, 1-[4-(6,7-Dimethoxy-quinolin-4-yloxy)-3-fluoro-phenyl]-3-(3,3-dimethyl-cyclohexyl)-urea] the same measures were 2 nM, 5.13 nM, 3 nM and 96.1%.
Take `COc1cc2c(Oc3ccc(NC(=O)NCCC(C)(C)C)c(F)c3)ccnc2cc1OCCN1C(C)CCCC1C` (centres unmarked) [Compound 60, 1-(3,3-Dimethyl-butyl)-3-(4-{7-[2-(2,6-dimethyl-piperidin-1-yl)-ethoxy]-6-methoxy-quinolin-4-yloxy}-2-fluoro-phenyl)-urea]: the concentration for half-maximal inhibition (IC50) in test [1] (Homo sapiens, MV4-11, 72 h) was found to be 33 nM; in test [2] (Homo sapiens, MOLM-13, 72 h), 108 nM; in test [3] (Homo sapiens, MOLM-13, 72 h) it was 59 nM.
On to `COc1cc2c(Oc3ccc(NC(=O)NCCC(C)(C)C)cc3F)ccnc2cc1OCCN1C(C)CCCC1C` (centres unmarked) [Compound 62, 1-(3,3-Dimethyl-butyl)-3-(4-{7-[2-(2,6-dimethyl-piperidin-1-yl)-ethoxy]-6-methoxy-quinolin-4-yloxy}-3-fluoro-phenyl)-urea], for which the IC50 in test [1] (Homo sapiens, MV4-11, 72 h) was determined as 4 nM; in test [2] (Homo sapiens, MOLM-13, 72 h), 26.5 nM; in test [3] (Homo sapiens, MOLM-13, 72 h) it was 7 nM.
For `COc1cc2c(Oc3ccc(NC(=O)NCCC(C)(C)CO)c(F)c3)ccnc2cc1OCCN1CCCCC1` [Compound 63, 1-{2-Fluoro-4-[6-methoxy-7-(2-piperidin-1-yl-ethoxy)-quinolin-4-yloxy]-phenyl}-3-(4-hydroxy-3,3-dimethyl-butyl)-urea], the IC50 in test [1] (Homo sapiens, MV4-11, 72 h) was 10 nM; in test [2] (Homo sapiens, MOLM-13, 72 h), 47.8 nM; in test [3] (Homo sapiens, MOLM-13, 72 h), 22 nM.
For `COc1cc2c(Oc3ccc(NC(=O)NCCC4CCCCC4)c(F)c3)ccnc2cc1OCCN1CCCCC1` [Compound 64, 1-(2-Cyclohexyl-ethyl)-3-{2-fluoro-4-[6-methoxy-7-(2-piperidin-1-yl-ethoxy)-quinolin-4-yloxy]-phenyl}-urea], the IC50 turned out to be 13 nM in test [1] (Homo sapiens, MV4-11, 72 h); 195 nM in test [2] (Homo sapiens, MOLM-13, 72 h); 19 nM in test [3] (Homo sapiens, MOLM-13, 72 h).
Take `COc1cc2c(Oc3ccc(NC(=O)NCCC4CCCC4)c(F)c3)ccnc2cc1OCCN1CCCCC1` [Compound 65, 1-(2-Cyclopentyl-ethyl)-3-{2-fluoro-4-[6-methoxy-7-(2-piperidin-1-yl-ethoxy)-quinolin-4-yloxy]-phenyl}-urea]: the IC50 was 4 nM in test [1] (Homo sapiens, MV4-11, 72 h); 24.6 nM in test [2] (Homo sapiens, MOLM-13, 72 h); 9 nM in test [3] (Homo sapiens, MOLM-13, 72 h).
As to `COc1cc2c(Oc3ccc(NC(=O)NCCC(C)(C)C)c(F)c3)ccnc2cc1OCCN1CCOCC1` [Compound 67, 1-(3,3-Dimethyl-butyl)-3-{2-fluoro-4-[6-methoxy-7-(2-morpholin-4-yl-ethoxy)-quinolin-4-yloxy]-phenyl}-urea], the figures for the half-maximal inhibitory concentration (IC50) in test [1], in test [2] (72 hr) and in test [3] were 2 nM, 16.1 nM and 4 nM, respectively.
For `COc1cc2nccc(Oc3ccc(NC(=O)NCCC(C)(C)C)cc3)c2cc1OCCN1CCOCC1` [Compound 68, 1-(3,3-Dimethyl-butyl)-3-{4-[7-methoxy-6-(2-morpholin-4-yl-ethoxy)-quinolin-4-yloxy]-phenyl}-urea], the IC50 in test [1] (Homo sapiens, MV4-11, 72 h) is less than 1 nM; in test [2] (Homo sapiens, MOLM-13, 72 h), 13.3 nM; in test [3] (Homo sapiens, MOLM-13, 72 h), 1 nM.
For `COc1cc2c(Oc3ccc(NC(=O)NC4CCCC(C)(C)C4)c(F)c3)ccnc2cc1OCCN1CCOCC1` (centres unmarked) [Compound 69, 1-(3,3-Dimethyl-cyclohexyl)-3-{2-fluoro-4-[6-methoxy-7-(2-morpholin-4-yl-ethoxy)-quinolin-4-yloxy]-phenyl}-urea] the same measures were 2 nM, 17.7 nM and 8 nM.
For `COc1cc2c(Oc3ccc(NC(=O)NCCC(C)(C)C)cc3Cl)ccnc2cc1OCCN1CC(C)OC(C)C1` (centres unmarked) [Compound 70, 1-(3-Chloro-4-{7-[2-(2,6-dimethyl-morpholin-4-yl)-ethoxy]-6-methoxy-quinolin-4-yloxy}-phenyl)-3-(3,3-dimethyl-butyl)-urea] the same measures were 2 nM, 29.6 nM and 3 nM.
For `COc1cc2c(Oc3ccc(NC(=O)NCCC4CCCCC4)c(F)c3)ccnc2cc1OCCN1CCOCC1` [Compound 72, 1-(2-Cyclohexyl-ethyl)-3-{2-fluoro-4-[6-methoxy-7-(2-morpholin-4-yl-ethoxy)-quinolin-4-yloxy]-phenyl}-urea] the same measures were 3 nM, 54.5 nM and 8 nM.
Turning to `COc1cc2c(Oc3ccc(NC(=O)NCCC(C)C)c(F)c3)ccnc2cc1OCCN1CCOCC1` [Compound 73, 1-{2-Fluoro-4-[6-methoxy-7-(2-morpholin-4-yl-ethoxy)-quinolin-4-yloxy]-phenyl}-3-(3-methyl-butyl)-urea], the IC50 in test [1] (Homo sapiens, MV4-11, 72 h) amounted to 6 nM; in test [2] (Homo sapiens, MOLM-13, 72 h), 21.5 nM; in test [3] (Homo sapiens, MOLM-13, 72 h) it was 20 nM.
Regarding `COc1cc2c(Oc3ccc(NC(=O)NCCC(C)(C)C)cc3)ccnc2cc1OCCCN1CCN(C)CC1` [Compound 75, 1-(3,3-Dimethyl-butyl)-3-(4-{6-methoxy-7-[3-(4-methyl-piperazin-1-yl)-propoxy]-quinolin-4-yloxy}-phenyl)-urea hydrochloride], the IC50 in test [1] (Homo sapiens, MV4-11, 72 h) was less than 1 nM; in test [3] (Homo sapiens, MOLM-13, 72 h), less than 1 nM. For the same compound, the inhibition in vivo at 50 mg/kg in test [4] (216 h, day 9) stood at 94.1%.
As for `COc1cc2c(Oc3ccc(NC(=O)NCCC(C)(C)C)c(F)c3)ccnc2cc1OCCCN1CCN(C)CC1` [Compound 76, 1-(3,3-Dimethyl-butyl)-3-(2-fluoro-4-{6-methoxy-7-[3-(4-methyl-piperazin-1-yl)-propoxy]-quinolin-4-yloxy}-phenyl)-urea], in test [4] (216 h, day 9), the inhibition in vivo at 50 mg/kg was found to be 34.3%.
Still for that read-out and setting: then `COc1cc2c(Oc3ccc(NC(=O)NCCC(C)(C)C)cc3Cl)ccnc2cc1OCCCN1CCN(C)CC1` [Compound 77, 1-(3,3-Dimethyl-butyl)-3-(3-chloro-4-{6-methoxy-7-[3-(4-methyl-piperazin-1-yl)-propoxy]-quinolin-4-yloxy}-phenyl)-urea], with 70.4%.

These data come from patent US20080207617A1, “Quinoline Derivatives and Quinazoline Derivatives Inhibiting Autophosphrylation of Flt3 and Medicinal Compositions Containing the Same” (KIRIN BEER KABUSHIKI KAISHA, priority 2002, published 2008).
